Among the data in a melting point compilation (Tetko et al.; mined from patent text by program, amines drawn as free bases though some values may be those of a salt) are melting point values, retold here.

For orientation: melting point means the temperature, or range, at which the solid turns liquid.

On to `COc1ccc(S(=O)(=O)N2C(=O)C(c3ccccc3OC)(N3C[C@H](OC)C[C@H]3C(=O)N(C)C)c3cc(Cl)ccc32)c(OC)c1` (stereo partly specified), for which the melting point lay within 189 to 191 °C.

In turn, `COc1cc(C=CC(=O)c2ccc(O)c(OC)c2)ccc1O` had a melting point of 111 to 114 °C.

The compound `CCCCn1c(=O)c2nn(S(=O)(=O)CCCCl)cc2n(CCCC)c1=O` registered a melting point of 67 to 68 °C.

Regarding `CCOC(=O)C1=C(C)NC(c2csc(C)n2)=NC1c1ccc(F)cc1Cl` (stereo unspecified), the melting point lay within 123 to 125 °C.

`O=C1CCCN1C(=O)Oc1ccc([N+](=O)[O-])cc1` showed a melting point of 122 to 123 °C.

In the case of `Cc1ccc(S(=O)(=O)NC(=O)c2cc(Oc3ccc(C(F)(F)F)cc3Cl)ccc2[N+](=O)[O-])cc1`, the melting point turned out to be 150 °C.

`COC(c1cc2c3c(c1)c(C)cc(=O)n3CC2)(C(F)(F)F)C(F)(F)F`: the melting point was in the range of 242 to 243 °C.

The compound `COc1cccc(COc2cc3c(cc2-c2cc(C=CC(=O)O)ccc2OC)C(C)(C)CCC3(C)C)c1` displayed a melting point of 76 to 78 °C.

`CSc1nc(-c2ccc(Cl)cc2)c(CCC(=O)O)o1` registered a melting point of 183 to 184 °C.

Turning to `C[C@]1(N2Cc3c(OCc4ccc(CN5CCOCC5)cc4)cccc3C2=O)CCC(=O)NC1=O`, the melting point lay in the range of 178 to 180 °C.

For the compound `CC(=O)Nc1ccc(C=CC(=O)C(C)CC(=O)O)cc1` (stereo unspecified), the melting point is 189 to 190 °C.

The compound `Cc1ccc(I)c(CC(=O)N(C)C)c1` came in with a melting point of 47 to 49 °C.

`Cc1cccc2[nH]c(Nc3ccc(C(=O)O)cc3)nc12` gave a melting point of 375 to 378 °C.

On to `Cc1c(C)c2c(c(C)c1OCc1ccncc1)C(c1ccc(C(C)C)cc1)C1(CCN(C)CC1)O2` (stereo unspecified), for which the melting point lay in the range of 96 to 98 °C.

`CCOC(=O)c1cnc2sccc2c1O` yielded a melting point of 137 to 139 °C.

Compound `CCOC(=O)C1=CN(c2ccc(Cl)c(Cl)c2Cl)N(N)C1` gave a melting point of 158 to 159 °C.

`Cc1cc(-n2ccnc2)c2cccc(OCc3c(Cl)ccc(S(=O)(=O)N4CCC[C@H]4C(=O)N(C)CCCN(C)CCCO)c3Cl)c2n1` had a melting point of 92 °C.

Regarding `O=[N+]([O-])c1cnn2c1-c1ccccc1NC2c1ccc(Cl)cc1` (stereo unspecified), the melting point is 217 to 219 °C.

Regarding `O=c1ccc(C(F)(F)F)cn1Cc1ccccc1NCCN1CCOCC1`, the melting point was 101 to 103 °C.

`CCN1CCN(C(=O)c2ccc(N)cc2Cl)CC1` had a melting point of 123 to 124 °C.

On to `O=C(c1ccc2c(c1)[C@@H](O)[C@H](Br)CCO2)c1ccccc1F` (relative stereo), for which the melting point was 219 to 221 °C.

With `CC(C)(C)c1cc(-c2csc(C3(N4CCOCC4)CCOCC3)n2)cc(C(C)(C)C)c1O`, the melting point lay in the range of 172 to 174 °C.

With `C=C(c1ccc(C(=O)OC)cc1)c1cc2c(cc1C)C(C)(C)CCC2(C)C`, the melting point is 167 to 168 °C.

In the case of `CCCN(Cc1ccc(-c2ccccc2-c2nc(=O)o[nH]2)cc1)c1nn(C)cc1C(=O)OCC`, the melting point lay in the range of 182 to 183 °C.

`CCN(CC)c1nc(-c2ccncc2)nc2sc(C#N)c(C)c12` gave a melting point of 169 to 171 °C.

In turn, `COc1ccc(NC(=O)c2ccc(-c3ccc(-c4noc(C)n4)cc3)c(Cl)c2)cc1N1CCN(C)CC1` yielded a melting point of 93 to 95 °C.

The compound `Clc1ccc(NC2=Nc3ccccc3CS2)cc1Cl` registered a melting point of 207 to 208 °C.

Regarding `CCOC(=O)N(Cc1ccc(F)cc1)c1ccc(C(=O)OC)cc1`, the melting point lay within 83 to 84 °C.

Compound `CS(=O)(=O)OCCCCC1C(=O)Nc2ccccc21` (stereo unspecified) returned a melting point of 84 to 85 °C.

`Cn1ccc(C(Cl)Cl)n1` displayed a melting point of 38.5 to 40 °C.

Compound `O=C(Nc1ccc(-n2nc(C(F)(F)F)cc2Cl)cc1)c1ccncc1F` had a melting point of 128 to 129 °C.

Regarding `CCOc1cc(OCCCc2cn(-c3ccc(C(F)(F)F)cn3)nc2OCc2ccccc2)ccc1CCC(=O)O`, the melting point was in the range of 106 to 107 °C.

Take `COC(=O)Oc1cc(N2C(=O)C3=C(CCCC3)C2=O)c(F)cc1Cl`: the melting point was in the range of 138 to 146 °C.

Regarding `CC(C)(C)OC(=O)CCN1CCN(CC2CN(c3ccc(C(=N)NC(=O)c4ccccc4)cc3)C(=O)O2)CC1` (stereo unspecified), the melting point is 136 to 137 °C.

As to `Cn1c(=O)c(NS(C)(=O)=O)c(N2CCN(C(=O)c3cccs3)CC2)c2ccccc21`, the melting point was 223 °C.

The compound `CCCCc1oc2ccc([N+](=O)[O-])cc2c1C(=O)c1ccc(OCCBr)cc1` displayed a melting point of 81 °C.

Consider `COc1c(C)c(OC(=O)c2c(C)c(C)c(OCCCOc3ccc(F)cc3)c(C)c2OC)c(C)c(C)c1C(N)=O`, for which the melting point fell in the range of 146 to 149 °C.

`CC(=O)NCc1coc2c(OC(C)=O)cccc12` returned a melting point of 138 to 139 °C.

Consider `COc1c(Cl)ncnc1OCCc1ccc(Cl)cc1`, for which the melting point lay in the range of 70 to 71 °C.

`O=C(c1ccccc1)c1ncc(=O)n(CC(F)(F)F)n1` yielded a melting point of 174 to 175 °C.

Turning to `CC(C)(C)c1cc(NC(=O)Nc2cccc(Cl)c2Cl)c(-c2ccccc2)s1`, the melting point lay in the range of 171 to 173 °C.

On to `CCCn1c(COCC)nc2c(N)nc3ccc(OCC(=O)N4CCOCC4)cc3c21`, for which the melting point lay in the range of 196 to 197 °C.

Turning to `CC(C)(C)OC(=O)N1CCC(OCc2ccccc2)C1CC(O)Cn1cnc2ccncc2c1=O` (stereo unspecified), the melting point turned out to be 221 °C.

`CCOC(=O)c1nc2c(C)nn(CC)c2nc1OCC` came in with a melting point of 81 to 82 °C.

`COc1ccc(S(=O)(=O)C2(C(=O)NO)CCN(Cc3ccc(-c4cccs4)cc3)CC2)cc1` registered a melting point of 166 °C.

Take `O=C1C=C(NC(=O)C(=O)c2cn(Cc3ccc(Cl)cc3)c3cccc(CO)c23)CO1`: the melting point was 238 to 240 °C.

The compound `COc1cc(CN2CCN(C(=O)c3ccc4c(c3)C(=O)c3ccccc3-4)CC2)cc(OC)c1OC` registered a melting point of 166 to 168 °C.

In turn, `CC(C)(C)OC(=O)N[C@@H](CCl)[C@H](O)CCl` returned a melting point of 142 to 145 °C.

In the case of `Cc1c(Cl)cc(C(C)C)c(-c2c(C(C)C)cc(Cl)c(C)c2O)c1O`, the melting point turned out to be 98 °C.

The compound `CN1C(=O)CC[C@]2(C)c3ccc(-c4ccc5ccccc5c4)cc3CC[C@@H]12` displayed a melting point of 221 to 223 °C.

For `Cc1nc(NC(=O)NC(=O)c2c(F)cccc2F)ccc1-c1ccccc1`, the melting point is 206 to 208 °C.

`Cc1nc(C(N)=O)c([N+](=O)[O-])n1-c1ccc(Cl)c(Cl)c1` had a melting point of over 204 °C.

`CCc1nc(-c2ncn3c4ccc(Cl)cc4c(=O)n(C)c23)no1` returned a melting point of 196 to 198 °C.

In turn, `Oc1ccc(-c2ccccn2)c(O)c1` registered a melting point of 170 to 172 °C.

Turning to `CCOC(=O)CS(=O)(=O)N(Cc1ccc(Cl)cc1)c1ccccc1CC(=O)OC`, the melting point lay in the range of 86 to 88 °C.

`O=Cc1cccc2ncc(-c3ccccc3)cc12` yielded a melting point of 122 to 124 °C.

As to `Cc1nc(C(=O)NCCO[N+](=O)[O-])cs1`, the melting point is 78 to 79 °C.

Consider `CC1NC(=O)NN=C1c1ccc(NC(=O)Nc2ccccc2)cc1` (stereo unspecified), for which the melting point was over 140 °C.

As for `COc1ccc(-c2c(C)ccn2N2C(=O)c3ccccc3C2=O)c(Cl)c1`, the melting point lay within 202 to 208 °C.

On to `ONC(CCc1ccccc1)CCc1ccccc1`, for which the melting point was 54 to 55 °C.

`CN(C)C(=O)c1ccc2c(c1)C(c1ncnc3cc(OCCCN4CCOCC4)ccc13)C(=O)N2` (stereo unspecified): the melting point was 168 to 169 °C.

Compound `CC(C)n1nc(-c2c(-c3ccccc3)nn3ccc(C(=O)N4CCC(c5ccccc5)CC4)cc23)ccc1=O` gave a melting point of 184 to 185 °C.

For `CCCc1c(OCCCC(=O)NCCCCc2cccnc2)ccc(C(C)=O)c1O`, the melting point lay within 80 to 82 °C.

As for `CN(C(=O)c1ccc(Cl)cc1)[C@@H]1CCN(C(=O)Nc2ccc(F)nc2)C[C@H]1c1ccc(Cl)c(Cl)c1`, the melting point lay in the range of 156 to 158 °C.

In turn, `COc1cc(CCCCCCC2OC(=O)NC2=O)ccc1OCc1nc(-c2ccccc2)oc1C` (stereo unspecified) yielded a melting point of 113 to 117 °C.

`Cc1ccc2oc(=O)c(C(=O)Oc3cccc4cnccc34)cc2c1`: the melting point is 188 to 190 °C.

`COc1cc(F)c(C)cc1C(=O)O` displayed a melting point of 125 to 127 °C.

Regarding `NC(=O)c1cccc(OCCCCC/C=C\c2ccc(Cl)o2)c1`, the melting point was 53 to 56 °C.

With `Cc1ncc(C#N)c(Nc2ccc3[nH]ccc3c2C)c1-c1cc2ccccc2o1`, the melting point is 154 to 155 °C.

As for `COc1ccc(-c2cc3c(OC)cc(OC)cc3nc2OCC#N)cc1`, the melting point was 149 to 150 °C.

With `O=C(CNc1ccccc1F)Nc1ccc([N+](=O)[O-])cc1`, the melting point lay in the range of 150 to 153 °C.

Turning to `O=c1[nH]c2ncc(-c3ccc(-c4nc[nH]n4)nc3)nc2n1CC1CCOCC1`, the melting point lay within 353 to 356 °C.

In turn, `CCCCCCCCCCCCCCOc1ccc(NCc2cccnc2)cc1` displayed a melting point of 75 to 76 °C.

`N#Cc1c(C(F)(F)F)nn(-c2c(Cl)cc(S(=O)(=O)C(F)(F)F)cc2Cl)c1[N+](=O)[O-]` showed a melting point of 168 to 169 °C.

As to `O=S1(=O)C=C(Br)C=C1CO`, the melting point was in the range of 56 to 57 °C.

In the case of `CC(C(=O)O)S(=O)(=O)c1ccc2c(-c3ccccc3F)noc2c1Cl` (stereo unspecified), the melting point was 220 to 225 °C.

Compound `Cc1cc(NCc2ccccc2)c2c(c1)C(c1ccc(C(C)C)cc1)C(C)(C)O2` (stereo unspecified) showed a melting point of 80 to 81 °C.

In turn, `Cc1ccc(-c2ccc(OC3SCC(O)C(O)C3O)cn2)cn1` (stereo unspecified) returned a melting point of 228 °C.

As for `Cn1c(=O)n(Cc2ccc(C#N)cc2)c(=O)c2nc(-c3ccc(/C=C/C(=O)O)cc3)[nH]c21`, the melting point was over 300 °C.

`Cc1ccc2c(c1)[nH]c1cc(C)ccc12` showed a melting point of 280 to 281 °C.

Turning to `CC(C)CCOc1ccc2sc(C(=O)O)cc(=O)c2c1`, the melting point lay in the range of 208 to 209 °C.

The compound `O=C(O)CCCCCCCCCCn1nc(-c2ccccc2)c(-c2ccccc2)c1-c1ccccc1` gave a melting point of 81.5 to 84 °C.

`NC(CO)C(c1ccccc1)c1ccccc1` (stereo unspecified) displayed a melting point of 107 to 108 °C.

On to `CC(C)(C)c1csc(-c2nc(Cl)c(Cl)[nH]2)n1`, for which the melting point is 157 to 158 °C.

For `Fc1ccc(C(OCCN2CCN(C(c3ccc(F)cc3)c3ccc(F)cc3)CC2)c2ccc(F)cc2)cc1`, the melting point lay within 87 to 88 °C.

As to `O=C1N(CC2CCCO2)c2ccccc2C12COc1cc(O)ccc12` (stereo unspecified), the melting point was 72 to 74 °C.
